Entries after “also recorded” stand apart in the source; their conditions may differ. Counter-ions that a name gives are not always drawn.
How the values were obtained:
[1] = Solubility assessment (20 mg/ml solution, precipitate formation, pH strips); assay type: physicochemical; details: for Solubility, 20 mg/ml solution: dissolved in DMSO (100 mM); for pH of 20 mg/ml solution: dissolved in DMSO
Method: Solubility is an important property for therapeutic drug candidates. Poor solubility can lead to low bioavailability resulting in suboptimal drug delivery. It can also prevent the evaluation of test agents in animals because the concentration(s) needed to achieve the desired effect cannot be achieved to poor solubility. For solubility assessments, small molecules targeting RSK were compared. For these assessments, 100 mM solutions of the compounds dissolved in DMSO were diluted in DMEM growth media (Life Technologies) supplemented with fetal bovine serum (FBS, Life Technologies) and 100 units/ml penicillin and 100 units/mi streptomycin (Life Technologies) to make 20 mg/ml solutions. Once diluted, the solutions were vortexed and examined for the formation of precipitates. […] For Compound 26, a 100 mM solution of the compound dissolved in DMSO was diluted in phosphate buffered saline (Life Technologies) to make a 20 mg/ml solution. The stock of […] was chosen because this is the upper end of what would be required to dose mice for a range of studies including MTD, PK, PD and efficacy. The pH of this solution was determined to be 2, as previously described. […] At high concentrations some RSK inhibitors were highly soluble while others were not. Compound 0 is (R)—N-(1-benzyl-1H-pyrazol-4-yl)-9-methyl-6-oxo-6,7,8,9-tetrahydropyrido[3′,2′:4,5]pyrrolo[1,2-a]pyrazine-2-carboxamide. Compound 0 was not soluble, whereas Compounds 18, 20, 21, 25 and 26 were soluble under the same conditions (Table 5).

SUM149-PTXR [2] = test: Monolayer growth inhibition, Alamar blue assay; assay type: cell-based; details: Homo sapiens, 120 h; TNBC, BRCA mutant; 5 days, single dose
Method: (§2) 1×10^3 cells per well were seeded for a final volume of 200 μl per well and plates were incubated for 5 days at 37° C. in a humidified incubator with 5% CO2. Following the incubation period, cell survival was quantified by Alamar blue assay (Life Technologies). Briefly, media from each well was replaced with 100 μl of phosphate buffer saline (PBS, Life Technologies) and cells were incubated with 5% Alamar blue, which incorporates a propriety redox indicator that changes colour in response to metabolic activity, for up to 2 hours. During this period of incubation, the absorbance at 570 nm and 600 nm was measured at various time points, depending on the cell line or sample. Percent survival was calculated by comparing the absorbance ratio of the test well to the control well multiplied by 100%, as indicated in the following formula:

SUM149-PTXR [3] = test: Monolayer growth inhibition, crystal violet assay; assay type: cell-based; details: Homo sapiens, 120 h; TNBC, BRCA mutant; 5 days, single dose
[4] = system: All cell lines of Tables 7A/7B; test: Monolayer growth inhibition, crystal violet assay, range over all cell lines; assay type: cell-based; details: 120 h, read-out: IC50 Values - Crystal Violet (5 Days), Range, All
[5] = system: All cell lines of Tables 6A/6B; test: Monolayer growth inhibition, Alamar blue assay, range over all cell lines; assay type: cell-based; details: 120 h, read-out: IC50 Values - Alamar Blue (5 Days), Range, All
Method: as §2

[6] = system: phosphorylated Y-box binding protein-1 (YB-1) at serine 102 (P-YB-1 S102); test: Immunoblotting of P-YB-1 (cell signalling inhibition) in MDA-MB-231 cells
Method: Generation of cellular extracts: Following desired experimental conditions, breast cancer cell lines grown and treated in 6 well plates or 100 mm culture dishes (Grenier Bio-One) were placed on ice and the supernatant from each well was removed and the cells were washed in cold PBS. Following removal of PBS, cells were exposed to radioimmunoprecipitation assay (RIPA) buffer (50 mM Tris-HCl (pH 8), 150 mM NaCl, 1% NP-40, 0.5% sodium deoxycholate, 0.1% SDS; Fisher Scientific) supplemented with 1% phosphatase inhibitor (Fisher Scientific) and 1% protease inhibitor (Fisher Scientific) for 10 minutes. Samples were transferred to eppendorf tubes, vortexed and then centrifuged at 14 000 rpm for 10 minutes. Supernatants were collected as whole cell lysates. For mouse tumour tissues, each sample was place in a 35 mm culture dish with complete RIPA lysis buffer. The samples were diced in the buffer on ice with a sterile scalpel (VWR) and the buffer and tissue were transferred to an eppendorf tube. The samples were left on ice for 10 minutes with periodic vortexing every 2 to 3 minutes. The samples were then transferred to a Qiashredder (Qiagen) and centrifuged at 14 000 rpm for 2 minutes. The flow through was transferred to a new eppendorf tube and the samples were centrifuged again at 14 000 rpm for 5 minutes. Supernatants were collected as whole cell lysates.
Immunoblotting: To begin, the protein content of the lysates was measured using the Bicinchoninic Acid (BCA) Protein Assay Kit (Pierce), which included a protein standard curve generated with bovine serum albumin. […] For certain immunoblots, bands of proteins of interest were scanned and band intensity ratios were determined by densitometric analysis (ImageJ). […] To assess whether cells are actively undergoing cell death, the activity of poly ADP ribose polymerase (PARP) (1:1000 CST) was also measured using the immunoblotting method.

CD274 [7] = test: CD274 (PD-L1 gene) expression in MDA-MB-231 cells; assay type: cell-based, Human; details: Compound 16 2 or 4 uM; Compound 18 1, 2, or 4 uM
Excerpt: (§1) A key feature of cancer is low immunogenicity. This can occur by several mechanisms that allow the cells to escape immune recognition. […] HLA-DRA is a member of MHC-II genes and CIITA is the master regulator of MHC II transcription. Thus it was surprising that CIITA, which would be expected to regulate MHC II gene expression, was not altered by RSK inhibition. […] HLA-DRA is important for immune recognition while PD-L1 is involved in immune checkpoints.

HLA-DRA mRNA = HLA-DRA mRNA expression in MDA-MB-231 and JIMT-1 cells; assay type: cell-based, Human; details: Compound 16 2 or 4 uM; Compound 18 1, 2, or 4 uM
Excerpt: as §1

CIITA = CIITA mRNA expression in MDA-MB-231 and JIMT-1 cells; assay type: cell-based, Human; details: Compound 16 2 or 4 uM; Compound 18 1, 2, or 4 uM
Excerpt: as §1

CD274 [8] = test: CD274 (PD-L1 gene) expression in JIMT-1 cells; assay type: cell-based, Human; details: 1-20 uM
Excerpt: as §1

P-YB-1 = test: Pharmacodynamics: P-YB-1 signalling in MDA-MB-231 xenograft tumors (immunoblotting); details: n=3 treated 3 days, n=9 treated 21 days
Method: For mouse tumour tissues, each sample was place in a 35 mm culture dish with complete RIPA lysis buffer. The samples were diced in the buffer on ice with a sterile scalpel (VWR) and the buffer and tissue were transferred to an eppendorf tube. The samples were left on ice for 10 minutes with periodic vortexing every 2 to 3 minutes. The samples were then transferred to a Qiashredder (Qiagen) and centrifuged at 14 000 rpm for 2 minutes. The flow through was transferred to a new eppendorf tube and the samples were centrifuged again at 14 000 rpm for 5 minutes. Supernatants were collected as whole cell lysates.
Immunoblotting: To begin, the protein content of the lysates was measured using the Bicinchoninic Acid (BCA) Protein Assay Kit (Pierce), which included a protein standard curve generated with bovine serum albumin. Appropriate volumes of samples and loading buffer (50 mM Tris-HCl (pH 6.8), 2% SDS, 10% glycerol, 1% 3-mercaptoethanol, 12.5 mM EDTA, 0.02% bromophenol blue) were mixed, ensuring that equal amounts of protein were loaded. For the majority of experiments in this study, 30 μg of protein per well was loaded. […] For certain immunoblots, bands of proteins of interest were scanned and band intensity ratios were determined by densitometric analysis (ImageJ). […]
Cell signalling was evaluated by immunoblotting. […]

[9] = diluted in DMEM, hydrochloride salt
[10] = diluted in PBS, hydrochloride salt

Row | Compound | Solubility, 20 mg/ml solution ([1]; diluted in DMEM) | IC50 (SUM149-PTXR [2]) | IC50 (SUM149-PTXR [3]) | IC50 [4] | IC50 [5] | further results
1 | C[C@@H]1CNC(=O)c2cc3ccc(C(=O)Nc4cnn(Cc5ccccc5)c4)nc3n21 [Compound 0, (R)—N-(1-benzyl-1H-pyrazol-4-yl)-9-methyl-6-oxo-6,7,8,9-tetrahydropyrido[3′,2′:4,5]pyrrolo[1,2-a]pyrazine-2-carboxamide, reference compound] | not soluble; also recorded: Precipitate |  |  |  |  | Solubility for systemic delivery in mice (qualitative) [1]: poor or nonexistent solubility
2 | C[C@@H]1CNC(=O)c2cc3ccc(NC(=O)c4cnn(Cc5ccccc5)c4)cc3n21 [Compound 11, (R)-1-benzyl-N-(4-methyl-1-oxo-1,2,3,4-tetrahydropyrazino[1,2-a]indol-7-yl)-1H-pyrazole-4-carboxamide] |  | 36.4 ± 11.9 µM | 44.6 ± 3.9 µM |  |  | 
3 | C[C@@H]1CNC(=O)c2cc3ccc(NC(=O)c4cnn(Cc5ccccc5)c4)nc3n21 [Compound 15, (R)-1-benzyl-N-(9-methyl-6-oxo-6,7,8,9-tetrahydropyrido[3′,2′:4,5]pyrrolo[1,2-a]pyrazin-2-yl)-1H-pyrazole-4-carboxamide] |  | 9.2 ± 3 µM | 8.8 ± 2.2 µM | 5.9 to 21 µM | 3.6 to 21.3 µM | 
4 | C[C@@H]1CNC(=O)c2cc3ccc(C(=O)Nc4cnn(Cc5cccc(N)c5)c4)nc3n21 [Compound 16, (R)—N-(1-(3-aminobenzyl)-1H-pyrazol-4-yl)-9-methyl-6-oxo-6,7,8,9-tetrahydropyrido[3′,2′:4,5]pyrrolo[1,2-a]pyrazine-2-carboxamide] |  | 2.5 ± 0.4 µM | 3.5 ± 1.2 µM | 1.2 to 13.3 µM | 0.9 to 17.4 µM | Loss of P-YB-1 ([6]; 0.01-1 uM, 96 hrs): dose dependent loss of P-YB-1; Levels of CD274 in MDA-MB-231 cells (CD274 [7]): reduced levels of CD274; HLA-DRA mRNA levels (HLA-DRA mRNA): elevated levels of HLA-DRA mRNA; mRNA expression of CIITA (CIITA): little effect
5 | C[C@@H]1CNC(=O)c2cc3ccc(C(=O)Nc4cnn(Cc5ccccc5N)c4)nc3n21 [Compound 17, (R)—N-(1-(2-aminobenzyl)-1H-pyrazol-4-yl)-9-methyl-6-oxo-6,7,8,9-tetrahydropyrido[3′,2′:4,5]pyrrolo[1,2-a]pyrazine-2-carboxamide] |  | 4.2 ± 1.5 µM | 5.2 ± 0.6 µM | 1 to 8.9 µM | 1.2 to 12.6 µM | 
6 | C[C@@H]1CNC(=O)c2cc3ccc(C(=O)Nc4cnn(Cc5ccc(N)cc5)c4)nc3n21 [Compound 18, (R)—N-(1-(4-aminobenzyl)-1H-pyrazol-4-yl)-9-methyl-6-oxo-6,7,8,9-tetrahydropyrido[3′,2′:4,5]pyrrolo[1,2-a]pyrazine-2-carboxamide] | Soluble |  |  |  |  | CD274 in JIMT-1 cells (CD274 [8]): inhibited CD274; pH of 20 mg/ml solution ([1]; diluted in DMEM): 9; Loss of P-YB-1 ([6]; 0.01-1 uM, 96 hrs): dose dependent loss of P-YB-1; Levels of CD274 in MDA-MB-231 cells (CD274 [7]): reduced levels of CD274; HLA-DRA mRNA levels (HLA-DRA mRNA): elevated levels of HLA-DRA mRNA; mRNA expression of CIITA (CIITA): little effect
7 | C[C@@H]1CNC(=O)c2cc3ccc(NC(=O)c4cnn(Cc5cccc(N)c5)c4)nc3n21 [Compound 19, (R)-1-(3-aminobenzyl)-N-(9-methyl-6-oxo-6,7,8,9-tetrahydropyrido[3′,2′:4,5]pyrrolo[1,2-a]pyrazin-2-yl)-1H-pyrazole-4-carboxamide] |  | 14.1 ± 4.3 µM | 13 ± 1.3 µM | 7.4 to 34 µM | 10.5 to 37.3 µM | 
8 | C[C@@H]1CNC(=O)c2cc3ccc(C(=O)Nc4cnn(CC5CCN(C)CC5)c4)nc3n21 [Compound 20, (R)-9-methyl-N-(1-((1-methylpiperidin-4-yl)methyl)-1H-pyrazol-4-yl)-6-oxo-6,7,8,9-tetrahydropyrido[3′,2′:4,5]pyrrolo[1,2-a]pyrazine-2-carboxamide] | Soluble |  |  |  |  | pH of 20 mg/ml solution ([1]; diluted in DMEM): 8
9 | C[C@@H]1CNC(=O)c2cc3ccc(C(=O)Nc4ccccc4C(N)=O)nc3n21 [Compound 21, (R)—N-(2-carbamoylphenyl)-9-methyl-6-oxo-6,7,8,9-tetrahydropyrido[3′,2′:4,5]pyrrolo[1,2-a]pyrazine-2-carboxamide] | Soluble | 1.5 ± 0.8 µM | 2 ± 0.2 µM | 1.1 to 11.3 µM | 1.2 to 14.7 µM | pH of 20 mg/ml solution ([1]; diluted in DMEM): 9
10 | C[C@@H]1CNC(=O)c2cc3ccc(C(=O)Nc4cnn(Cc5ccc(C(F)(F)F)cc5)c4)nc3n21 [Compound 22, (R)-9-methyl-6-oxo-N-(1-(4-(trifluoromethyl)benzyl)-1H-pyrazol-4-yl)-6,7,8,9-tetrahydropyrido[3′,2′:4,5]pyrrolo[1,2-a]pyrazine-2-carboxamide] | Precipitate | 7.8 ± 4.6 µM | 8 ± 1.3 µM | 2.6 to 14.2 µM | 4.5 to 17.1 µM | 
11 | C[C@@H]1CNC(=O)c2cc3ccc(C(=O)Nc4cnn(Cc5ccc(F)cc5F)c4)nc3n21 [Compound 23, (R)—N-(1-(2,4-difluorobenzyl)-1H-pyrazol-4-yl)-9-methyl-6-oxo-6,7,8,9-tetrahydropyrido[3′,2′:4,5]pyrrolo[1,2-a]pyrazine-2-carboxamide] | Precipitate | 5.1 ± 4 µM | 5 ± 2.4 µM | 1.1 to 15 µM | 1.1 to 19.8 µM | 
12 | C[C@@H]1CNC(=O)c2c(Cl)c3ccc(C(=O)Nc4cnn(Cc5ccccc5)c4)nc3n21 [Compound 24, (R)—N-(1-benzyl-1H-pyrazol-4-yl)-5-chloro-9-methyl-6-oxo-6,7,8,9-tetrahydropyrido[3′,2′:4,5]pyrrolo[1,2-a]pyrazine-2-carboxamide] | Precipitate | 3.4 ± 2.1 µM | 4.5 ± 1.4 µM | 0.3 to 9.1 µM | 0.5 to 12.3 µM | 
13 | C[C@@H]1CNC(=O)c2cc3ccc(C(=O)Nc4cnn(Cc5ccc(N)cc5)c4)nc3n21 [Compound 25, (R)—N-(1-(4-aminobenzyl)-1H-pyrazol-4-yl)-9-methyl-6-oxo-6,7,8,9-tetrahydropyrido[3′,2′:4,5]pyrrolo[1,2-a]pyrazine-2-carboxamide hydrochloride salt] |  | 5.2 ± 4.2 µM |  |  |  | Solubility for systemic delivery in mice (qualitative) [1]: superior solubility; Solubility, 20 mg/ml solution [1, 9]: Soluble; pH of 20 mg/ml solution [1, 9]: 2; Loss of P-YB-1 ([6]; 0.01, 0.1, 1, or 10 uM, 24 hrs): dose dependent loss of P-YB-1; Tumors with reduced P-YB-1 signaling (3 and 21 days combined) (P-YB-1): 12/12
14 | C[C@@H]1CNC(=O)c2cc3ccc(C(=O)Nc4cnn(Cc5ccc(CN)cc5)c4)nc3n21 [Compound 26, (R)—N-(1-(4-(aminomethyl)benzyl)-1H-pyrazol-4-yl)-9-methyl-6-oxo-6,7,8,9-tetrahydropyrido[3′,2′:4,5]pyrrolo[1,2-a]pyrazine-2-carboxamide hydrochloride salt] |  | 8.8 ± 2.5 µM | 6.5 ± 2.1 µM | 1.5 to 12.3 µM | 1.9 to 15.5 µM | Solubility, 20 mg/ml solution [1, 10]: Soluble; pH of 20 mg/ml solution [1, 10]: 2-9
